Experimental findings from BindingDB's records for doi:10.7270/Q2G73C2Z (University of Pittsburgh, 2007) are described below.

Each structure is given as a SMILES string. Where only a bound is given, the exact number is not on record here.

In this assay the target is T1, Dual specificity protein phosphatase 6 (Rattus norvegicus, UniProt Q64346).
T1 sequence (Q64346 whole entry): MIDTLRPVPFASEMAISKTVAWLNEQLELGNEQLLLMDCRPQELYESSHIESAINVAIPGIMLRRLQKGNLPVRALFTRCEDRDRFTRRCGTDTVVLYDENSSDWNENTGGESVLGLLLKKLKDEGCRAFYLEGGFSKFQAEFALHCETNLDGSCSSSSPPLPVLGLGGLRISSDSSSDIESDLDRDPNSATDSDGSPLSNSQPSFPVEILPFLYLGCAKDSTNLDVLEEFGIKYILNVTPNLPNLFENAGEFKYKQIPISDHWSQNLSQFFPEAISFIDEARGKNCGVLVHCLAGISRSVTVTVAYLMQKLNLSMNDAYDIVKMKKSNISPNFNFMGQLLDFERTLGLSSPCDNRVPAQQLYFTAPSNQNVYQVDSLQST
Description: reproducibility of MKP-3 inhibition curves – biochemical, rat DUSP6, reproducibility testing, probe assessment, dose response (AID 566).
Broadly, the IC50 is the concentration that inhibits the measured activity by half. `[O-]/[N+](=C/c1ccc(F)cc1)c1ccccc1` [(E)-(4-fluorobenzylidene)(phenyl)azane oxide] displayed an IC50 of more than 50 µM.

`Nc1c(N2CCCC2)cc(Cl)c2nonc12` [(7-chloro-5-pyrrolidino-benzofurazan-4-yl)amine] gave a half-inhibitory concentration (IC50) of more than 50 µM.

`Cn1ncnc2c(=O)n(C)c(=O)nc1-2` gave a half-maximal inhibitory concentration (IC50) of 0.535 µM.

In the case of `CCn1nc(-c2cccs2)nc2c(=O)n(C)c(=O)nc1-2` [1-ethyl-6-methyl-3-thiophen-2-yl-pyrimido[5,4-e][1,2,4]triazine-5,7-dione], half-maximal inhibition (IC50) required 0.445 µM.

With `COCCCn1c(N)c(C(=O)NCCC(C)C)c2nc3ccccc3nc21` [MLS000041744], the IC50 is more than 50 µM.

`Nc1nc2c(s1)CCc1c-2cnn1-c1ccccc1` [MLS000085948] showed an IC50 of more than 50 µM.
